Data as given in US20160279190A1, “MODULATION OF AXON DEGENERATION” (GENENTECH, INC., priority 2008, published 2016).
Entries after “also recorded” stand apart in the source; their conditions may differ.

Experiments:
[1] = test system: DRGs; experiment: G-protein/GPCR inhibitors in NGF withdrawal-induced degeneration in DRGs; type: cell-based
Procedure: The assays described herein identified several inhibitors of G-proteins and G-protein coupled receptors (GPCRs) that decrease degeneration in neurons. Experiments were performed in DRGs to verify the role of G-proteins and GPCRs in degeneration pathways. The experimental protocols used in these experiments are the same as those described in Example 14. Pertussis toxin and SCH 202676 were purchased from Tocris Bioscience.

[2] = test system: cerebellar granule neurons (CGNs); experiment: serum deprivation/KCl reduction-induced degeneration; type: cell-based, mouse; settings: 5 mM KCl, 24 hours
Procedure: Kinase inhibitors (inhibitors of GSK3, JNK, EGFR, p38, and CaMKK) were tested for their capacity to protect cultured cerebellar granule neurons (CGNs) following serum deprivation/KCl reduction. Briefly, CGNs isolated from P7 mouse brain were cultured on PDL- and laminin-coated 96-well tissue culture dishes in medium containing serum and potassium (Basal Medium Eagles including 29 mM KCl and 10% FBS) at 37° C. After 24 hours in culture, cells were switched to “deprivation” medium (Basal Medium Eagles including 5 mM KCl), alone or in combination with various small molecule inhibitors as shown in Table 8. After a further 24 hours in culture, the neurons were fixed with 4% paraformaldehyde and stained with a neuronal marker (anti-class III β-Tubulin, Covance). Image acquisition was performed using the ImageXpress automated imaging system (Molecular Devices).

[3] = test system: DRGs; experiment: Campenot chamber local axon degeneration, anti-NGF in axon compartment; type: cell-based, mouse; settings: for formation of varicosities in locally NGF-deprived axons: axon inhibitors added to axon compartment: 10 μM AG555, 30 μM SB239; for Axon Compartment (axon protected when inhibitor is in axon compartment) / Cell Body Compartment (axon protected when inhibitor is in cell body compartment): anti-NGF in axon compartment, 28 hours
Procedure: Teflon dividers (Tyler Research) were cleaned by washing in water and wiping them clean of any residual grease. Dividers were then soaked in Nochromix (Godax Laboratories)/sulfuric acid overnight, rinsed five times in distilled and autoclaved water (SQ water), boiled for 30 minutes, and then air-dried before use.
Mouse laminin (5 μg/ml in sterile filtered water; Invitrogen) was added to PDL coated 35 mm dishes (BD Biosciences) and they were incubated for 1 hour at 37° C., followed by two rinses in SQ water. The dishes were vacuum-dried and then air-dried in a laminar flow hood for 15 minutes. Prepared dishes were then scored with a pin rake (Tyler Research). […] High vacuum grease (VWR) was added to each Teflon divider under a dissection scope. The laminin coated PDL dishes were inverted and dropped onto the Teflon divider, with additional pressure added by use of a toothpick in the non-track-containing regions. Dishes were incubated for 1 hour at 37° C. Five hundred microliters of NBM+MC (50 ng/ml NGF) solution was added to each of the side compartments, and a grease barrier was added in front of the center cell slot.
Free E13.5 spinal cords were dissected from mouse embryos and placed into NBM+MC (25 ng/ml NGF) solution. DRGs were detached from the spinal cord with a tungsten needle. An NBM+MC-lubricated P200 pipette was used to move DRGs into a 1.5 ml tube. DRGs were pelleted with a tabletop centrifuge for 30 seconds. The supernate was discarded and 0.05% Trypsin/EDTA (cold) was added. The pellet was resolubilized with a pipette and incubated at 37° C. for 15 minutes with constant agitation (650 RPM). The sample was again centrifuged and the supernate discarded. The pellet was resuspended in warm NBM+MC (50 ng/ml NGF) solution and triturated with a flamed glass pipette 20 times, followed by trituration with a fire-bored glass pipette another 20 times. The samples were again centrifuged and the resulting pellets were resuspended in 0.5 ml NBM+MC (50 ng/ml NGF) solution. The cells were diluted to a final concentration of 2.5×10^6 cells/ml. The cell suspensions were loaded into a 1 ml syringe with a 22 gauge needle. The center slot of the Campenot divider was filled using the syringe (to a volume of at least 50 μl). The Campenot chamber was incubated overnight at 37° C. 2.5 ml NGF+MC (50 ng/ml NGF) solution was added to the center compartment and the grease gate was removed. The outer medium (cell body compartment) was replaced after three days with 2.5 ml NBM+MC medium (with 25 ng/ml NGF). After five days in culture, one distal compartment was washed three times with warmed NBM+MC (no NGF) solution. After the third wash, 500 μl NBM+MC (no NGF) solution was added to the axon compartment in combination with either 0.5% DMSO or an inhibitor. The cell body compartment was replaced with 2.5 ml NBM+MC medium (with 25 ng/ml NGF) containing either 0.5% DMSO or inhibitor.
After 28 hours of anti-NGF antibody treatment, 8% PFA/30% sucrose solution (see above) was added directly to the culture medium at a 1:1 dilution and incubated for 30 minutes. The Teflon divider was removed after the first 15 minutes of addition. The system was washed once with 2.5 ml PBS prior to immunostaining. Neurons were blocked in 5% BSA/0.2% triton in PBS for 30 minutes. The primary antibody Tuj1 (Covance) was added to a final dilution of 1:1000 in PBS containing 2% BSA and incubated overnight at 4° C. The dish was washed once with PBS. […] The dish was washed twice with PBS, and a 22×22 mm coverslip (VWR) was added with 350 μl of fluoromount G (Electron Microscopy Sciences). The neurons were visualized by use of a fluorescence microscope.
As described above, E13.5 DRGs were isolated and grown for 5 days in a Campenot chamber.

[4] = test system: heregulin induced tyrosine phosphorylation in MDA-MB-453 cells; settings: published source (footnote b), read-out: Cellular IC50; cited from earlier work
[5] = test system: protein tyrosine phosphorylation in 3T3-Her2 cells; settings: published source (footnote c), read-out: Cellular IC50; cited from earlier work
[6] = test system: dorsal spinal cord explants; experiment: dorsal spinal cord (DSC) explant degeneration; type: cell-based; settings: 3.4 μM, 11.1 μM, 33.3 μM and 100 μM (FIG. 37)
Text: DSCs grow out axons over a period of days, but if they are not rescued with the addition of a survival factor, they will eventually degenerate.

[7] = test system: dorsal root ganglion neurons; experiment: EGFR ligand added to neurons maintained in NGF: axon degeneration; type: cell-based, mouse; settings: 100 μg/mL EGF
Procedure: (§1) Dorsal Root Ganglia (DRG) immunoblots were prepared as follows. Primary cells used in the experiments were Charles River CD-1 E13 Dorsal Root Ganglia (DRG). The cells were maintained in N3/F12 (+25 ng/ml NGF) medium (Ham's F12 (23 ml), N3 supplement (1 ml), glucose (1 ml of 1 M glucose stock), 25 ng/ml Nerve Growth Factor 2.5 S, mouse (Roche 11362348001) in Ham's F12 (stock: 50 μg/ml −80° C.), which was filter-sterilized prior to use). The experiments also employed Triton lysis buffer (20 mM Tris pH 7.5, 150 mM NaCl, 0.1% Triton-X100, 100× Phosphatase inhibitor cocktail I (added fresh), 100× Phosphatase inhibitor cocktail II (added fresh), 1 tablet/10 ml Protease inhibitor tablet (added fresh)).
DRG explants were prepared on Day 0. Embryo dissections were carried out in L15 medium (dissection tools were soaked in 70% isopropanol, and dishes were set up on ice: 10 cm dishes (4 embryos per dish) and one 6 cm dish for spinal cords). E13.5 spinal cords were extracted into DMEM+10% FBS. 5×20 DRGs were detached from the spinal cord. 8 well slides were filled with 250 μl N3/F12 (25 ng/ml NGF)+7 μM cytosine arabinoside. […]
The goal of these experiments was to see if activation of EGFR by EGF would be sufficient to drive degeneration. […] To ensure that EGF is capable of activating EGFR/ErbBs in the neuronal cultures used in these assays, ERK activation was assessed (ERK is a downstream target of EGFR).

[8] = test system: ERK; experiment: ERK activation by EGFR ligand, Western blot; type: cell-based, mouse; settings: 100 μg/mL EGF, 30 minutes to 1 hour
Procedure: as §1
DRG explants were prepared on Day 0. Embryo dissections were carried out in L15 medium (dissection tools were soaked in 70% isopropanol, and dishes were set up on ice: 10 cm dishes (4 embryos per dish) and one 6 cm dish for spinal cords). E13.5 spinal cords were extracted into DMEM+10% FBS. […]
Immunoblotting was carried out by aspiration of media with a pipette tip, washing twice with ice-cold sterile PBS, and removal of all PBS using an aspirator with a pipette tip or kimwipes. […] Quantification was carried out by choosing a background method and standard bands that minimize negative/counter-intuitive values: i.e., top/bottom, right/left, user-defined (user-defined). […]

[9] = inhibitor 30 μM, listed as SB239
[10] = inhibitor 30 μM, listed as SB239063

With `CN=c1nc(-c2ccccc2)n(-c2ccccc2)s1` [SCH 202676] the “NGF withdrawal-induced degeneration in DRGs” value ([1]; 0.1 μM, 1 μM, 10 μM or 100 μM (FIGS. 49 and 50)) was “decreases NGF withdrawal-induced degeneration in DRGs”.

For `C=C/C=C(\C=C)CCCNC(=O)/C(C#N)=C/c1ccc(O)c(O)c1` [AG 555], the “protection of cerebellar granule neurons from serum deprivation/KCl reduction” value ([2]; inhibitor 1 μM or 10 μM) was “protect cerebellar granule neurons from serum deprivation/KCl reduction”, the “formation of varicosities in locally NGF-deprived axons” value [3] was “fewer varicosities” and the “Axon Compartment (axon protected when inhibitor is in axon compartment)” value ([3]; inhibitor 10 μM) was “did not degenerate; also recorded: protected from local degeneration; also recorded: Yes (4)”. The “Cell Body Compartment (axon protected when inhibitor is in cell body compartment)” value ([3]; inhibitor 10 μM) was “failed to prevent degeneration; also recorded: No (4)”.

In the case of `C=CC(=O)Nc1ccc2ncnc(Nc3cccc(Br)c3)c2c1` [PD168393], the IC50 [4] is listed as 0.005 µM, the IC50 [5] is listed as 100 µM and the “Axon Compartment (axon protected when inhibitor is in axon compartment)” value ([3]; inhibitor 5 μM) is listed as “Yes (1)”. For the same compound, the “Cell Body Compartment (axon protected when inhibitor is in cell body compartment)” value ([3]; inhibitor 5 μM) was “No (1)”.

With Pertussis toxin the “degeneration in neurons following NGF withdrawal” value ([1]; 0.01 μg/mL, 0.1 μg/mL or 1 μg/mL (FIG. 51)) was “decreases degeneration in neurons following NGF withdrawal”.

With `COc1nccc(-c2c(-c3ccc(F)cc3)ncn2C2CCC(O)CC2)n1` (centres unmarked) [SB 239063] the “protection of cerebellar granule neurons from serum deprivation/KCl reduction” value ([2]; inhibitor 5 μM) was “protect cerebellar granule neurons from serum deprivation/KCl reduction”, the “formation of varicosities in locally NGF-deprived axons” value [3] was “fewer varicosities” and the “Axon Compartment (axon protected when inhibitor is in axon compartment)” value ([3]; inhibitor 5 μM) was “Yes (1)”. For the same compound, the “Cell Body Compartment (axon protected when inhibitor is in cell body compartment)” value ([3]; inhibitor 5 μM) was “No (1)”, the “Axon Compartment (axon protected when inhibitor is in axon compartment)” value [3, 9] was “did not degenerate; also recorded: protected from local degeneration” and the “Cell Body Compartment (axon protected when inhibitor is in cell body compartment)” value [3, 9] was “failed to prevent degeneration”. For the same compound, the “Axon Compartment (axon protected when inhibitor is in axon compartment)” value [3, 10] was “Yes (3)” and the “Cell Body Compartment (axon protected when inhibitor is in cell body compartment)” value [3, 10] was “No (3)”.

With `C#Cc1cccc(Nc2ncnc3cc(OCCOC)c(OCCOC)cc23)c1` [Tarceva, N-(3-ethynylphenyl)-6,7-bis(2-methoxyethoxy)quinazolin-4-amine] the “degeneration in dorsal spinal cord explants” value [6] was “delay this degeneration program; also recorded: blocks degeneration in dorsal spinal cord explants”.

For `O=C1c2ccccc2-c2n[nH]c3cccc1c23` [SP600125], the “protection of cerebellar granule neurons from serum deprivation/KCl reduction” value ([2]; inhibitor 5 μM) was “protect cerebellar granule neurons from serum deprivation/KCl reduction”, the “Axon Compartment (axon protected when inhibitor is in axon compartment)” value ([3]; inhibitor 5 μM) was “Yes (1)” and the “Cell Body Compartment (axon protected when inhibitor is in cell body compartment)” value ([3]; inhibitor 5 μM) was “Yes (1)”. The “Axon Compartment (axon protected when inhibitor is in axon compartment)” value ([3]; inhibitor 10 μM) was “Yes (1)” and the “Cell Body Compartment (axon protected when inhibitor is in cell body compartment)” value ([3]; inhibitor 10 μM) was “Yes (1)”.

In the case of “EGF: ErbB ligand (ErbB1) that activates EGFR (NSDSECPLSHDGYCLHDGVCMYIEALDKYACNCVVGYIGERCQYRDLKWWELR; Epidermal growth factor; UniProt P01133 971-1023, looked up)”, the “induction of axon degeneration in neurons maintained in NGF” value [7] is reported as “does not cause degeneration; also recorded: does not induce axon degeneration” and the “phosphorylation of ERK (ERK activity by Western blot)” value [8] is reported as “increased ERK activity; also recorded: induces phosphorylation of ERK”.
